# Reference: article PMC5218480 (PLoS ONE, 2017)
# Test system: MV-4-11 cells
# Experiment: Gene expression microarray analysis (Affymetrix PrimeView) and GSEA
# Format: cell-based, human
# Design: RFU PODN (11730768_x_at) / Fold change /veh PODN (11730768_x_at) / RFU LINC00158 (11744669_a_at) / Fold change /veh LINC00158 (11744669_a_at) / RFU DUSP10 (11751237_a_at) / Fold change /veh DUSP10 (11751237_a_at) / RFU ID3 (11757404_x_at) / Fold change /veh ID3 (11757404_x_at) / RFU PLEKHG5 (11737974_s_at) / Fold change /veh PLEKHG5 (11737974_s_at) / RFU LRRC4B (11730491_at) / Fold change /veh LRRC4B (11730491_at) / RFU GIMAP4 (11747438_a_at) / Fold change /veh GIMAP4 (11747438_a_at) / RFU KRT8 (11758183_x_at) / Fold change /veh KRT8 (11758183_x_at) / RFU CNN1 (11734310_a_at) / Fold change /veh CNN1 (11734310_a_at) / RFU VPS37D (11726825_at) / Fold change /veh VPS37D (11726825_at) / RFU C10orf10 (11716522_x_at) / Fold change /veh C10orf10 (11716522_x_at) / RFU KIR2DL2 /// KIR2DL4 /// KIR2DL5A /// KIR2DL5B /// KIR2DS1 /// KIR2DS2 /// KIR2DS3 /// KIR2DS4 /// KIR3DL3 /// KIR3DL3 /// KIR3DS1 (11738374_at) / Fold change /veh KIR2DL2 /// KIR2DL4 /// KIR2DL5A /// KIR2DL5B /// KIR2DS1 /// KIR2DS2 /// KIR2DS3 /// KIR2DS4 /// KIR3DL3 /// KIR3DL3 /// KIR3DS1 (11738374_at) / RFU C1QL1 (11718748_at) / Fold change /veh C1QL1 (11718748_at) / RFU TMPRSS4 (11747572_a_at) / Fold change /veh TMPRSS4 (11747572_a_at) / RFU HAMP (11756126_x_at) / Fold change /veh HAMP (11756126_x_at) / RFU RNFT2 (11725882_a_at) / Fold change /veh RNFT2 (11725882_a_at) / RFU NR4A2 (11747474_a_at) / Fold change /veh NR4A2 (11747474_a_at) / RFU ABCC12 (11746883_a_at) / Fold change /veh ABCC12 (11746883_a_at) / RFU TMEM136 (11760407_x_at) / Fold change /veh TMEM136 (11760407_x_at) / RFU CLDN22 /// WWC2 (11732394_at) / Fold change /veh CLDN22 /// WWC2 (11732394_at) / RFU HLA-DPB1 (11760878_x_at) / Fold change /veh HLA-DPB1 (11760878_x_at) / RFU SPINT1 (11716480_a_at) / Fold change /veh SPINT1 (11716480_a_at) / RFU GAP43 (11754022_s_at) / Fold change /veh GAP43 (11754022_s_at) / RFU A4GNT (11735810_at) / Fold change /veh A4GNT (11735810_at) / RFU PRB3 (11715151_x_at) / Fold change /veh PRB3 (11715151_x_at) / RFU TUBB4B (11761932_at) / Fold change /veh TUBB4B (11761932_at) / RFU CAPN14 (11732068_a_at) / Fold change /veh CAPN14 (11732068_a_at) / RFU TMCC2 (11721928_a_at) / Fold change /veh TMCC2 (11721928_a_at) / RFU IRGQ (11745062_a_at) / Fold change /veh IRGQ (11745062_a_at) / RFU FAM174B (11720279_a_at) / Fold change /veh FAM174B (11720279_a_at) / RFU TMPRSS4 (11748680_a_at) / Fold change /veh TMPRSS4 (11748680_a_at) / RFU FAM212B (11763350_a_at) / Fold change /veh FAM212B (11763350_a_at) / RFU PLEKHG5 (11743358_a_at) / Fold change /veh PLEKHG5 (11743358_a_at) / RFU ZSCAN30 (11745921_a_at) / Fold change /veh ZSCAN30 (11745921_a_at) / RFU CMKLR1 (11741424_a_at) / Fold change /veh CMKLR1 (11741424_a_at) / RFU LOC101060620 /// MAPK8IP1 (11723275_at) / Fold change /veh LOC101060620 /// MAPK8IP1 (11723275_at) / RFU SPTSSB (11747773_x_at) / Fold change /veh SPTSSB (11747773_x_at) / RFU PRSS12 (11739890_at) / Fold change /veh PRSS12 (11739890_at) / RFU BIN1 (11741810_x_at) / Fold change /veh BIN1 (11741810_x_at) / RFU WNT11 (11732464_a_at) / Fold change /veh WNT11 (11732464_a_at) / RFU C10orf10 (11716521_a_at) / Fold change /veh C10orf10 (11716521_a_at) / RFU C5orf56 (11738089_at) / Fold change /veh C5orf56 (11738089_at) / RFU CYB561 (11721691_x_at) / Fold change /veh CYB561 (11721691_x_at) / RFU ANKRD19P (11752326_a_at) / Fold change /veh ANKRD19P (11752326_a_at) / RFU OR2T12 /// OR2T33 /// OR2T8 (11738714_s_at) / Fold change /veh OR2T12 /// OR2T33 /// OR2T8 (11738714_s_at) / RFU VCAN (11748164_a_at) / Fold change /veh VCAN (11748164_a_at) / RFU JSRP1 (11732532_at) / Fold change /veh JSRP1 (11732532_at) / RFU KRTAP10-11 (11738290_x_at) / Fold change /veh KRTAP10-11 (11738290_x_at) / RFU MYO3A (11730013_a_at) / Fold change /veh MYO3A (11730013_a_at) / RFU EBF3 (11725865_a_at) / Fold change /veh EBF3 (11725865_a_at) / RFU CAMK2N1 (11719241_x_at) / Fold change /veh CAMK2N1 (11719241_x_at) / RFU C5orf56 (11738088_a_at) / Fold change /veh C5orf56 (11738088_a_at) / RFU OLFML3 (11715873_a_at) / Fold change /veh OLFML3 (11715873_a_at) / RFU LOC100653217 /// NTM (11731650_a_at) / Fold change /veh LOC100653217 /// NTM (11731650_a_at) / RFU MAPK11 (11762145_a_at) / Fold change /veh MAPK11 (11762145_a_at) / RFU FIZ1 (11724087_x_at) / Fold change /veh FIZ1 (11724087_x_at) / RFU OASL (11726364_x_at) / Fold change /veh OASL (11726364_x_at) / RFU SOX15 (11748057_x_at) / Fold change /veh SOX15 (11748057_x_at) / RFU CD79A (11719716_a_at) / Fold change /veh CD79A (11719716_a_at) / RFU HIST1H1D (11736915_at) / Fold change /veh HIST1H1D (11736915_at) / RFU CASKIN2 (11723855_a_at) / Fold change /veh CASKIN2 (11723855_a_at) / RFU LOC730098 (11760151_x_at) / Fold change /veh LOC730098 (11760151_x_at) / RFU OR4N2 (11742367_at) / Fold change /veh OR4N2 (11742367_at) / RFU PRRT2 (11749266_a_at) / Fold change /veh PRRT2 (11749266_a_at) / RFU SNX32 (11753110_a_at) / Fold change /veh SNX32 (11753110_a_at) / RFU CDHR5 (11726645_a_at) / Fold change /veh CDHR5 (11726645_a_at) / RFU RCAN1 (11760418_a_at) / Fold change /veh RCAN1 (11760418_a_at) / RFU FAM167A (11723789_a_at) / Fold change /veh FAM167A (11723789_a_at) / RFU FAM26E (11764081_at) / Fold change /veh FAM26E (11764081_at) / RFU ISYNA1 (11749810_s_at) / Fold change /veh ISYNA1 (11749810_s_at) / RFU ACY1 (11761880_at) / Fold change /veh ACY1 (11761880_at) / RFU 11764098_at / Fold change /veh 11764098_at / RFU SAMD14 (11745864_x_at) / Fold change /veh SAMD14 (11745864_x_at) / RFU NPB (11741838_a_at) / Fold change /veh NPB (11741838_a_at) / RFU TMPRSS6 (11731388_a_at) / Fold change /veh TMPRSS6 (11731388_a_at) / RFU KRTAP10-2 (11738614_at) / Fold change /veh KRTAP10-2 (11738614_at) / RFU ARHGAP8 /// PRR5-ARHGAP8 (11727945_x_at) / Fold change /veh ARHGAP8 /// PRR5-ARHGAP8 (11727945_x_at) / RFU KRTAP5-7 /// NADSYN1 (11734609_at) / Fold change /veh KRTAP5-7 /// NADSYN1 (11734609_at) / RFU RASL12 (11751679_a_at) / Fold change /veh RASL12 (11751679_a_at) / RFU CDKN2B (11736163_a_at) / Fold change /veh CDKN2B (11736163_a_at) / RFU PRF1 (11729649_at) / Fold change /veh PRF1 (11729649_at) / RFU, ZNF638 /// ZNF638-IT1 / Fold change vs veh, ZNF638 /// ZNF638-IT1 / RFU, PANK3 / Fold change vs veh, PANK3 / RFU, SH3YL1 / Fold change vs veh, SH3YL1 / RFU, ZEB2 / Fold change vs veh, ZEB2 / RFU, NRIP1 / Fold change vs veh, NRIP1 / RFU, PTTG1IP / Fold change vs veh, PTTG1IP / RFU, CAPN2 / Fold change vs veh, CAPN2 / RFU, MED14 / Fold change vs veh, MED14 / RFU, SNORA58 / Fold change vs veh, SNORA58 / RFU, C1orf63 / Fold change vs veh, C1orf63 / RFU, LRRFIP1 / Fold change vs veh, LRRFIP1 / RFU, NDUFAF7 / Fold change vs veh, NDUFAF7 / RFU, SLC12A2 / Fold change vs veh, SLC12A2 / RFU, IBTK / Fold change vs veh, IBTK / RFU, ESF1 / Fold change vs veh, ESF1 / Fold change vs veh, TMEM50B / RFU, TAOK1 / Fold change vs veh, TAOK1 / RFU, ACBD3 / Fold change vs veh, ACBD3 / RFU, TMA16 / Fold change vs veh, TMA16 / RFU, RWDD3 / Fold change vs veh, RWDD3 / RFU, BCAT1 / Fold change vs veh, BCAT1 / RFU, EDEM3 / Fold change vs veh, EDEM3 / RFU, TMEM33 / Fold change vs veh, TMEM33 / RFU, WDR75 / Fold change vs veh, WDR75 / RFU, AHCTF1 / Fold change vs veh, AHCTF1 / RFU, TFRC / Fold change vs veh, TFRC / RFU, ZDHHC17 / Fold change vs veh, ZDHHC17 / RFU, NOM1 / Fold change vs veh, NOM1 / RFU, ARL8B / Fold change vs veh, ARL8B / RFU, ZBTB11 / Fold change vs veh, ZBTB11 / RFU, TAMM41 / Fold change vs veh, TAMM41 / RFU, KIAA1704 /// LOC100996395 / Fold change vs veh, KIAA1704 /// LOC100996395 / RFU, ING1 / Fold change vs veh, ING1 / RFU, TRMT61B / Fold change vs veh, TRMT61B / RFU, FUBP3 / Fold change vs veh, FUBP3 / RFU, TP53 / Fold change vs veh, TP53 / RFU, TNKS2 / Fold change vs veh, TNKS2 / RFU, ZFP14 / Fold change vs veh, ZFP14 / RFU, ACTR2 / Fold change vs veh, ACTR2 / RFU, PPP3R1 / Fold change vs veh, PPP3R1 / RFU, PIK3R1 / Fold change vs veh, PIK3R1 / RFU, HNRNPA1 / Fold change vs veh, HNRNPA1 / RFU, RNF170 / Fold change vs veh, RNF170 / RFU, ZNF28 / Fold change vs veh, ZNF28 / RFU, RNGTT / Fold change vs veh, RNGTT / RFU, OGT / Fold change vs veh, OGT / RFU, BRD1 / Fold change vs veh, BRD1 / RFU, MARS / Fold change vs veh, MARS / RFU, ZNF655 / Fold change vs veh, ZNF655 / RFU, FAHD1 / Fold change vs veh, FAHD1 / RFU, BDP1 / Fold change vs veh, BDP1 / RFU, LRRCC1 / Fold change vs veh, LRRCC1 / RFU, ARID1A / Fold change vs veh, ARID1A / RFU, ZNF146 / Fold change vs veh, ZNF146 / RFU, ZNF330 / Fold change vs veh, ZNF330 / RFU, GPN3 / Fold change vs veh, GPN3 / RFU, C9orf123 / Fold change vs veh, C9orf123 / RFU, N4BP2L2 / Fold change vs veh, N4BP2L2 / RFU, ARFIP1 / Fold change vs veh, ARFIP1 / RFU, FAM179B / Fold change vs veh, FAM179B / RFU, BCL10 / Fold change vs veh, BCL10 / RFU, UHRF1BP1L / Fold change vs veh, UHRF1BP1L / RFU, BET1 / Fold change vs veh, BET1 / RFU, CNOT2 / Fold change vs veh, CNOT2 / RFU, ZNF268 / Fold change vs veh, ZNF268 / Fold change vs veh, ZNF507 / RFU, DGCR2 / Fold change vs veh, DGCR2 / RFU, WDSUB1 / Fold change vs veh, WDSUB1 / Fold change vs veh, HSP90B1 /// MIR3652 / RFU, ADSS / Fold change vs veh, ADSS / RFU, GK / Fold change vs veh, GK / RFU, ZNF148 / Fold change vs veh, ZNF148 / RFU, TAF9 / Fold change vs veh, TAF9 / RFU, SLC1A5 / Fold change vs veh, SLC1A5 / RFU, SLMO2 / Fold change vs veh, SLMO2 / RFU, ABCC4 / Fold change vs veh, ABCC4 / RFU, LOC101060439 /// RAP1B / Fold change vs veh, LOC101060439 /// RAP1B / RFU, RFX7 / Fold change vs veh, RFX7 / RFU, GTPBP10 / Fold change vs veh, GTPBP10 / RFU, CNEP1R1 / Fold change vs veh, CNEP1R1 / RFU, BIVM-ERCC5 /// ERCC5 / Fold change vs veh, BIVM-ERCC5 /// ERCC5 / RFU, ILF3 / Fold change vs veh, ILF3 / RFU 11762660_at / Fold change /veh 11762660_at / RFU VCAN (11757783_s_at) / Fold change /veh VCAN (11757783_s_at) / RFU DDX43 (11728927_at) / Fold change /veh DDX43 (11728927_at) / RFU KRT8 (11758188_x_at) / Fold change /veh KRT8 (11758188_x_at) / RFU NKD1 (11759106_at) / Fold change /veh NKD1 (11759106_at) / RFU SRD5A1 (11742802_a_at) / Fold change /veh SRD5A1 (11742802_a_at) / RFU TPSAB1 /// TPSB2 (11721975_s_at) / Fold change /veh TPSAB1 /// TPSB2 (11721975_s_at) / RFU GSTM3 (11746129_a_at) / Fold change /veh GSTM3 (11746129_a_at) / RFU IL23R (11737362_x_at) / Fold change /veh IL23R (11737362_x_at) / RFU TMEM51 (11727254_a_at) / Fold change /veh TMEM51 (11727254_a_at) / RFU PIWIL2 (11732686_x_at) / Fold change /veh PIWIL2 (11732686_x_at) / RFU ORM1 (11744905_x_at) / Fold change /veh ORM1 (11744905_x_at) / RFU CCDC152 (11743942_at) / Fold change /veh CCDC152 (11743942_at) / RFU ECM1 (11717891_a_at) / Fold change /veh ECM1 (11717891_a_at) / RFU IL23R (11748794_a_at) / Fold change /veh IL23R (11748794_a_at) / RFU TNFAIP8L3 (11732012_x_at) / Fold change /veh TNFAIP8L3 (11732012_x_at) / RFU MBOAT4 (11741988_at) / Fold change /veh MBOAT4 (11741988_at) / RFU 11764193_at / Fold change /veh 11764193_at / RFU TMEM53 (11763286_at) / Fold change /veh TMEM53 (11763286_at) / RFU MAGEB2 (11727129_at) / Fold change /veh MAGEB2 (11727129_at) / RFU TMEM200A (11744735_a_at) / Fold change /veh TMEM200A (11744735_a_at) / RFU CCDC152 (11751479_a_at) / Fold change /veh CCDC152 (11751479_a_at) / RFU FAM211A (11726209_a_at) / Fold change /veh FAM211A (11726209_a_at) / RFU RGS16 (11746705_a_at) / Fold change /veh RGS16 (11746705_a_at) / RFU VCAN (11755009_s_at) / Fold change /veh VCAN (11755009_s_at) / RFU RHOB (11743442_s_at) / Fold change /veh RHOB (11743442_s_at) / RFU RGS16 (11720943_a_at) / Fold change /veh RGS16 (11720943_a_at) / RFU RGS16 (11720944_at) / Fold change /veh RGS16 (11720944_at) / RFU, VPS4B / Fold change vs veh, VPS4B / RFU, CREB1 / Fold change vs veh, CREB1 / RFU, DNAJC13 / Fold change vs veh, DNAJC13 / RFU, GNAQ / Fold change vs veh, GNAQ / RFU, CDK5R1 / Fold change vs veh, CDK5R1 / RFU, ZRANB3 / Fold change vs veh, ZRANB3 / RFU, CUL4A / Fold change vs veh, CUL4A / RFU, CCNY / Fold change vs veh, CCNY / RFU, UFL1 / Fold change vs veh, UFL1 / RFU, COG3 / Fold change vs veh, COG3 / RFU, DIAPH2 / Fold change vs veh, DIAPH2 / RFU, SKA2 / Fold change vs veh, SKA2 / RFU, AFF3 / Fold change vs veh, AFF3 / RFU, LMF1 / Fold change vs veh, LMF1 / RFU, IPO11 / Fold change vs veh, IPO11 / RFU, DFFB / Fold change vs veh, DFFB / RFU, FOXP1 / Fold change vs veh, FOXP1 / RFU, CARD8 / Fold change vs veh, CARD8 / RFU, STRN3 / Fold change vs veh, STRN3 / RFU, ADK / Fold change vs veh, ADK / RFU, RASSF2 / Fold change vs veh, RASSF2 / RFU, WIPF1 / Fold change vs veh, WIPF1 / RFU, LARP1B / Fold change vs veh, LARP1B / RFU, RASA1 / Fold change vs veh, RASA1 / RFU, RB1 / Fold change vs veh, RB1 / RFU, PPFIA1 / Fold change vs veh, PPFIA1 / RFU, MAT2A / Fold change vs veh, MAT2A / RFU, CCT5 / Fold change vs veh, CCT5 / RFU, WDR92 / Fold change vs veh, WDR92 / RFU, CUX1 / Fold change vs veh, CUX1 / RFU, TTC7A / Fold change vs veh, TTC7A / RFU, TMEM135 / Fold change vs veh, TMEM135 / RFU, DEPTOR / Fold change vs veh, DEPTOR / RFU, CPM / Fold change vs veh, CPM / RFU, DNAJB6 / Fold change vs veh, DNAJB6 / RFU, CACNA2D3 / Fold change vs veh, CACNA2D3 / RFU, DTX4 / Fold change vs veh, DTX4 / RFU, TFCP2 / Fold change vs veh, TFCP2 / RFU, GMCL1 /// GMCL1P1 / Fold change vs veh, GMCL1 /// GMCL1P1 / RFU, AEBP2 / Fold change vs veh, AEBP2 / RFU, SNHG1 /// SNORD22 /// SNORD25 /// SNORD26 /// SNORD27 /// SNORD28 /// SNORD29 /// SNORD31 / Fold change vs veh, SNHG1 /// SNORD22 /// SNORD25 /// SNORD26 /// SNORD27 /// SNORD28 /// SNORD29 /// SNORD31 / Fold change (Aza/veh), C12orf56 (ProbeSet 11735607_a_at) / Fold change (ACY-1035/veh), C12orf56 (ProbeSet 11735607_a_at) / Fold change (Aza/veh), FGFR1OP (ProbeSet 11751329_s_at) / Fold change (ACY-1035/veh), FGFR1OP (ProbeSet 11751329_s_at) / Fold change (Aza/veh), VPS36 (ProbeSet 11739960_a_at) / Fold change (ACY-1035/veh), VPS36 (ProbeSet 11739960_a_at) / RFU SYPL1 (11715823_x_at) / Fold change /veh SYPL1 (11715823_x_at) / RFU IGFBP7 (11715501_s_at) / Fold change /veh IGFBP7 (11715501_s_at) / RFU REEP3 (11722064_at) / Fold change /veh REEP3 (11722064_at) / RFU IGLL1 (11728026_x_at) / Fold change /veh IGLL1 (11728026_x_at): dose or concentration left out as unconfirmed
# Conditions: ProbeSet 11749477_a_at; LIST B
compound,measurement,value
Nc1ccc(-c2cccs2)cc1NC(=O)c1ccc2c(c1)cc(C1CC1)n2CCN1CCOCC1 [ACY-1035],"RFU, EDEM3",51.94 RFU
